Source: PMC10901353, “Identification of a potent and selective LAPTc inhibitor by RapidFire-Mass Spectrometry, with antichagasic activity” (PLOS Neglected Tropical Diseases, 2024)
Several values for one entry are separate records, joined by “and”; a condition that tells them apart may be missing. Equal entries are not always repeated. Where two headings read alike, the source gives them in different places. Blank lines part the entries; values can stand above or below the compound they belong to.

Legend:
[1] = tested on: PfA-M17 (M17 LAP from Plasmodium falciparum); conditions: cited from earlier work
[2] = biological target: T1, LAPTc (acidic M17 leucyl-aminopeptidase from T. cruzi) (Trypanosoma cruzi, UniProt V5BWE3); test: Dose-response studies for LAPTc inhibition by RapidFire-MS; type: biochemical; conditions: for Emax: read-out: Maximum Effect; for Hit Confirmation: whether primary screen hit confirmed in potency experiment
Procedure: (§1) This assay was previously described. The assay was performed in 384-well clear F-bottom polypropylene plates with a final reaction volume of 15 μL. The reaction mixture contained 7.5 μL LAPTc in 50 mM Tris-HCl, pH 7.5, 0.005% NP-40 and 7.5 μL LSTVIVR peptide substrate (Cambridge Research Biochemicals, Billingham, UK) in the same buffer was added to start the reaction. The reaction was performed at room temperature for 40 min and then stopped with 85 μL 1% formic acid containing 0.15 mg/mL STVIVR* internal standard (Cambridge Research Biochemicals, Billingham, UK).
To generate half-maximum inhibitory concentration (IC50) data for LAPTc, 10-point dose-response curves with 100 μM as highest concentration and 1:2 dilution in DMSO (0.195–100 μM range) were prepared in 384 well plates. All other experimental conditions were as described above. All IC50 curve fitting was performed by four-parameter logistic dose-response curve fit using ActivityBase XE (IDBS). At least three replicates were generated for each hit compound.

[3] = tested on: intracellular T. cruzi amastigotes; parameters: method as in PMID 30001347; conditions: reported previously in this assay ref 33; cited from earlier work
[4] = Cytotoxicity against infected Vero host cells in T. cruzi intracellular assay; type: cell-based, African green monkey; parameters: Max Effect (Vero): unit not given here; conditions: African green monkey, Vero cells infected with T. cruzi; infected Vero host cells, 96 h; read-out: pCC50 (Vero) +/- StDev (converted)
Procedure: (§2) Briefly, these cells were maintained at 37°C and 5% CO2 in MEM supplemented with 10% FCS, sub-culturing every 2–3 days at a ratio of 1:5 after 5 min treatment with Trypsin-EDTA (Gibco).
(§3) This assay was performed as described with the only modification that treatment was 96 h instead of 72 h. Briefly, Vero cells were infected overnight with tissue culture derived T. cruzi trypomastigotes in T225 tissue culture flasks (MOI 5). Any remaining free trypomastigotes were washed away with serum free MEM and the infected Vero cells were harvested by trypsinisation. Compounds (250 nL in DMSO) were dispensed using LabCyte ECHO (Beckman Coulter Life Sciences, USA) into each well of Corning black flat bottomed 384-well plates (Corning, USA). […] The infected Vero cells were then plated into the plates containing the compounds, at 4,000 cells per well in MEM media with 1% FCS. […] The plates were imaged on a Perkin Elmer Operetta high-content imaging system using a 20× objective. Images were analyzed using the Columbus system (Perkin Elmer). The algorithm first identified the Vero nuclei followed by demarcation of the cytoplasm and identification of intracellular amastigotes. This algorithm reported percent infected Vero cell and total number of Vero cells. All potency determinations were carried out in at least three independent replicates and are reported as pEC50 +/- standard deviation. pEC50 = -log(EC50[M]).

Vero cells = test: as above; type: cell-based, African green monkey; parameters: Max Effect (Vero): unit not given here; conditions: individual replicates
Procedure: as §2, §3

[5] = Cytotoxicity assay on human HepG2 cells (resazurin); type: cell-based; conditions: human, HepG2 cells, 72 h, two independent experiments; read-out: pCC50 (HepG2) (converted)
HepG2 cells = test: as above; type: cell-based; conditions: individual replicates
[6] = tested on: intracellular T. cruzi amastigotes; test: T. cruzi intracellular assay (high-content imaging, infected Vero cells); type: cell-based, Trypanosoma cruzi; parameters: Max Effect (T. cruzi): unit not given here; conditions: for EC50 / Emax: Trypanosoma cruzi, Vero; for Emax: read-out: Max Effect (T. cruzi)
Procedure: T. cruzi parasite, TcI strain Silvio X10/7 subclone A1 [34] was maintained in culture as previously described. Parasites were maintained as amastigotes by passaging on a weekly basis in Vero cells. Culture maintenance infections were carried out at an MOI (multiplicity of infection) of 1.5.
This assay was performed as described with the only modification that treatment was 96 h instead of 72 h. Briefly, Vero cells were infected overnight with tissue culture derived T. cruzi trypomastigotes in T225 tissue culture flasks (MOI 5). Any remaining free trypomastigotes were washed away with serum free MEM and the infected Vero cells were harvested by trypsinisation. Compounds (250 nL in DMSO) were dispensed using LabCyte ECHO (Beckman Coulter Life Sciences, USA) into each well of Corning black flat bottomed 384-well plates (Corning, USA). […] The infected Vero cells were then plated into the plates containing the compounds, at 4,000 cells per well in MEM media with 1% FCS. After 96 h incubation at 37°C in presence of 5% CO2, the plates were fixed with 4% formaldehyde for 20 min at room temperature and stained with 5 μg/mL Hoechst 33342. The plates were imaged on a Perkin Elmer Operetta high-content imaging system using a 20× objective. Images were analyzed using the Columbus system (Perkin Elmer). The algorithm first identified the Vero nuclei followed by demarcation of the cytoplasm and identification of intracellular amastigotes. This algorithm reported percent infected Vero cell and total number of Vero cells. All potency determinations were carried out in at least three independent replicates and are reported as pEC50 +/- standard deviation. pEC50 = -log(EC50[M]).

[7] = biological target: T1, LAPTc (acidic M17 leucyl-aminopeptidase from T. cruzi); test: High-throughput single point screening for LAPTc inhibitors by RapidFire-MS; type: biochemical; conditions: primary screen, 30 μM, single replicate; read-out: Percent Inhibition
Procedure: as §1
Single point screening of a library of 3329 compounds was performed in 384-well clear plates (Greiner 781101) at room temperature. Test compounds (45 nL in DMSO) were transferred to assay plates by an ECHO 550 acoustic dispenser (Labcyte). LAPTc was tested at 3 nM with 150 μM (approximately the value of the apparent Michaelis-Menten constant -appKM- [16]) LSTVIVR peptide substrate in a 40 min reaction. Before addition of substrate, LAPTc was preincubated with 45 nL compounds or DMSO for 15 min. Compounds, dissolved in DMSO, were tested at 30 μM. Controls without compound (the same volume of DMSO, 0% inhibitory effect) and without enzyme and compound (100% inhibitory effect) were prepared. The experiment was performed without replicates. The remaining experimental conditions were maintained as previously described. Data were processed and analysed through ActivityBase XE (IDBS). The selection criterion for hits in this single point screen was percent inhibition larger than the mean plus three standard deviations. All primary screening data are available in ChEMBL (see Data Availability statement).

[8] = average of four independent replicates, read-out: pIC50 +/- StDev (LAPTc) (converted)
[9] = Initial hit confirmation, single replicate
[10] = Initial hit confirmation, single replicate, read-out: pIC50 (converted)
[11] = Replicate data generation, individual replicates
[12] = Replicate data generation, individual replicates, read-out: pIC50 (converted)
[13] = 96 h, four independent experiments, read-out: pEC50 (T. cruzi) +/- StDev (converted)
[14] = individual replicates, read-out: pEC50 (T. cruzi) (converted)

T1 sequence (V5BWE3 entry or part of it): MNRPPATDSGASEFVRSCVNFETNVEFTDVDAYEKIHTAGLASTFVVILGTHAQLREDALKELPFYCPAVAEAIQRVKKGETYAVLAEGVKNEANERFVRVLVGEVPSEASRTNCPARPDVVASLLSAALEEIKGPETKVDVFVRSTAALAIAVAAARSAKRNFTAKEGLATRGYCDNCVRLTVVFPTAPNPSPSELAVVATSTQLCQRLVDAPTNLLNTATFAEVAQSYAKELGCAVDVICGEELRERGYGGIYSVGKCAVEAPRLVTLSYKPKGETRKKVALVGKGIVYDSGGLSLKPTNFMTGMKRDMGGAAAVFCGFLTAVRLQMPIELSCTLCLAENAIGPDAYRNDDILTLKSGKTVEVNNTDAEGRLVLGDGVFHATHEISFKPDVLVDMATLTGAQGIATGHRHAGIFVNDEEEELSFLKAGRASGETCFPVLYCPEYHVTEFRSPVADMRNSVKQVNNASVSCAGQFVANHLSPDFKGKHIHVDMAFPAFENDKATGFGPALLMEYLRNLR

SMILES: O=C(NO)C(NC(=O)C12CC3CC(CC(C3)C1)C2)c1ccc(-c2cc(F)c(F)c(F)c2)cc1 (centres unmarked) [Compound 6k]
Ki [1]: 0.0289 µM

SMILES: CC(C)C[C@@H](NC(=O)[C@H](O)[C@@H](N)Cc1ccc([N+](=O)[O-])cc1)C(=O)O [nitrobestatin]
Ki [1]: 0.0027 µM

IC50 [2, 8]: 0.24 µM
SMILES: CC(C)C[C@H](NC(=O)[C@@H](O)[C@H](N)Cc1ccccc1)C(=O)O [bestatin, reference compound]
Ki [1]: 0.025 µM

SMILES: O=C(Cn1ccnc1[N+](=O)[O-])NCc1ccccc1 [benznidazole]
EC50 [3]: 2 µM | pEC50 (T. cruzi) [3]: 5.7

SMILES: CC1CS(=O)(=O)CCN1/N=C/c1ccc([N+](=O)[O-])o1 (centres unmarked) [nifurtimox]
EC50 [3]: 0.8 µM | pEC50 (T. cruzi) [3]: 6.1

SMILES: NC(CCc1ccccc1)P(=O)(O)CC(Cc1ccccc1)C(=O)O (centres unmarked) [Co4]
Ki [1]: 0.013 µM

SMILES: CC(C)(C)C(=O)NC(C(=O)NO)c1ccc(-c2cc(F)c(F)c(F)c2)cc1 (centres unmarked) [Compound 10o]
Ki [1]: 0.06 µM

SMILES: O=C(NCC(=O)N1CCc2ccccc2C1)C1CCCCC1 [Compound 9]
Hill Slope [2, 9]: 1.7 | Emax [2, 9]: 54% | IC50 [2, 10]: 15.8 µM | Hill Slope [2, 11]: 0.749 and 0.7 and 0.655 | Maximum Effect [2, 11]: 67% and 63% | Emax [2, 11]: 64% | IC50 [2, 12]: 39.8 µM and 31.6 µM | IC50 [2, 8]: 28.8 µM | Hit Confirmation [2]: confirmed | CC50 at 96 h [4]: > 50.1 µM | Max Effect (Vero) (Vero cells): 7 and 4 and 15 and 11 | pEC50 (Vero) (Vero cells): < 4.3 | CC50 at 72 h [5]: > 100 µM | Max Effect (HepG2) (HepG2 cells): 3.76 and 2.85 | pEC50 (HepG2) (HepG2 cells): < 4.0 | EC50 [6, 13]: > 50.1 µM | Emax ([6]; individual replicates): 31% | EC50 [6, 14]: > 50.1 µM | Max Effect (T. cruzi) ([6]; individual replicates): 27 and 21 and 30 | inhibition at 30 µM [7]: 49%

SMILES: NC(=O)C1Cc2ccccc2CN1C(=O)Cc1cn2ccsc2n1 (centres unmarked) [Compound 28]
Hill Slope [2, 9]: 0.9 | Emax [2, 9]: 87% | IC50 [2, 10]: 10 µM | Hill Slope [2, 11]: 1.5 and 1.4 | Maximum Effect [2, 11]: 72% and 74% | Emax [2, 11]: 73% | IC50 [2, 12]: 39.8 µM and 50.1 µM | IC50 [2, 8]: 30.2 µM | Hit Confirmation [2]: confirmed | CC50 at 96 h [4]: > 50.1 µM | Max Effect (Vero) (Vero cells): 32 and 37 and 15 and 16 | pEC50 (Vero) (Vero cells): < 4.3 | CC50 at 72 h [5]: > 100 µM | Max Effect (HepG2) (HepG2 cells): 2.59 and 4.33 | pEC50 (HepG2) (HepG2 cells): < 4.0 | EC50 [6, 13]: > 50.1 µM | Emax ([6]; individual replicates): 27% | EC50 [6, 14]: > 50.1 µM | Max Effect (T. cruzi) ([6]; individual replicates): 21 and 20 and 35 | inhibition at 30 µM [7]: 27%

SMILES: CC(C)(C)C(=O)NC(C(=O)NO)c1ccc(-n2cccn2)cc1 (centres unmarked) [Compound 13d]
Ki [1]: 0.028 µM

SMILES: Nc1[nH]cnc1-c1nc(-c2ccccc2)cs1 [Compound 7]
Hill Slope [2, 9]: 1.2 | Emax [2, 9]: 90% | IC50 [2, 10]: 2 µM | Hill Slope [2, 11]: 1.7 and 1.5 | Maximum Effect [2, 11]: 50% and 61% | Emax [2, 11]: 53% | IC50 [2, 8]: 3.89 µM | Hit Confirmation [2]: confirmed | CC50 at 96 h [4]: 10.2 µM | Max Effect (Vero) (Vero cells): 78 and 73 | pEC50 (Vero) (Vero cells): 5.1 and 4.8 and 5.2 | CC50 at 72 h [5]: > 100 µM | Max Effect (HepG2) (HepG2 cells): 3 and 4 | pEC50 (HepG2) (HepG2 cells): < 4.0 | EC50 [6, 13]: 38.9 µM | EC50 [6, 14]: 31.6 µM | Max Effect (T. cruzi) ([6]; individual replicates): 59 and 37 and 30 | pEC50 (T. cruzi) ([6]; individual replicates): < 4.3 and 4.3 | inhibition at 30 µM [7]: 56%

SMILES: CC1c2ccsc2CCN1C(=O)c1ccc(-n2cnnn2)cc1 (centres unmarked) [Compound 2]
Hill Slope [2, 9]: 1.7 | Emax [2, 9]: 77% | IC50 [2, 10]: 31.6 µM | Hill Slope [2, 11]: 1.1 and 1.2 | Maximum Effect [2, 11]: 86% | Emax [2, 11]: 87% | IC50 [2, 12]: 15.8 µM | IC50 [2, 8]: 19.5 µM | Hit Confirmation [2]: confirmed | CC50 at 96 h [4]: > 50.1 µM | Max Effect (Vero) (Vero cells): 26 and 27 and 21 and 22 | pEC50 (Vero) (Vero cells): < 4.3 | CC50 at 72 h [5]: > 100 µM | Max Effect (HepG2) (HepG2 cells): 4 and 3 | pEC50 (HepG2) (HepG2 cells): < 4.0 | EC50 [6, 13]: > 50.1 µM | EC50 [6, 14]: > 50.1 µM | Max Effect (T. cruzi) ([6]; individual replicates): 42 and 15 and 37 and 27 | inhibition at 30 µM [7]: 62%
